The text below walks through data of article PMC9760430, “A stapled chromogranin A-derived peptide homes in on tumors that express αvβ6 or αvβ8 integrins” (International Journal of Biological Sciences, 2023).

The target of test [1] is T1, Human αvβ8 (Homo sapiens, UniProt P06756+P26012).
T1 construct: purchased Bio-Techne
Details: method as in PMID 31755501. The following applies: competition with isoDGR-peroxidase; mean ± SE of n independent experiments; ref [25]; read-out: Ki (competitive integrin binding assay) Human αvβ8; cited from earlier work.

Test [2] concerns the target T2, Human αvβ6 (Homo sapiens, UniProt P06756+P18564).
T2 construct: purchased Bio-Techne
More on the design: method as in PMID 31755501. The following applies: competition with isoDGR-peroxidase on αvβ6-coated plates; mean ± SE of n independent experiments; ref [25]; read-out: Ki (competitive integrin binding assay) Human αvβ6; cited from earlier work.

Test [3] deals with T2, Human αvβ6. The experiment in a line: competitive integrin binding assay (isoDGR-peroxidase probe), αvβ6-coated plates. The following applies: competition with isoDGR-peroxidase on αvβ6-coated plates; mean ± SE of n independent experiments (n in the column beside). Here is the method:
Peptides were prepared by chemical synthesis; their identity and purity were checked by mass spectrometry (MS) and reverse-phase HPLC analysis. The affinity of peptides for αvβ6-coated plates was determined by competitive binding assay using an isoDGR peptide (an RGD mimetic) labeled with peroxidase as a probe for the integrin-binding site. Cell adhesion assays were carried out as described previously.
Figure S2. Competitive binding of isoDGR-peroxidase conjugate with peptide 5, 5a and 2a to αvβ6-coated microtiter plates.
The competitive binding assay was performed as previously described, using an isoDGR peptide (an RGD mimetic) labeled with peroxidase (isoDGR-HRP) as a probe for the integrin-binding site. A representative experiment (mean ± SE of 3-4 technical replicates) is shown. The resulting Ki values are shown (mean ± SE of n=3-7 independent experiments, see also Table […]
(1 picture or pasted object on this page, not shown here)
Figure S10. Biochemical characterization of 5a- and 2a-NOTA conjugates. […]
C) Competitive binding of isoDGR-HRP to αvβ6-coated microtiter plates with peptides and peptide-NOTA conjugates, as measured by competitive ELISA. […]
D) Stability of 5a-NOTA after labeling with 18F, as determined by RP-HPLC analysis using an […]

Read-outs that look alike come from different tables or passages of the source. Bridge positions count the residues as written; N and C are the ends. Square brackets hold non-standard residues; d marks the D form. Ends that are not written are not given here. Peptide text beside a SMILES is read from it. * marks the point of attachment. X2 = O=C(O)CN1CCN(CC(=O)O)CCN(CC(=O)NCCN2C(=O)CC(*)C2=O)CC1; Lys(N3) = [N-]=[N+]=NCCCC[C@H](N)C(=O)O; Pra = C#CC[C@H](N)C(=O)O

T2 sequence (P06756 31-992 limits assumed): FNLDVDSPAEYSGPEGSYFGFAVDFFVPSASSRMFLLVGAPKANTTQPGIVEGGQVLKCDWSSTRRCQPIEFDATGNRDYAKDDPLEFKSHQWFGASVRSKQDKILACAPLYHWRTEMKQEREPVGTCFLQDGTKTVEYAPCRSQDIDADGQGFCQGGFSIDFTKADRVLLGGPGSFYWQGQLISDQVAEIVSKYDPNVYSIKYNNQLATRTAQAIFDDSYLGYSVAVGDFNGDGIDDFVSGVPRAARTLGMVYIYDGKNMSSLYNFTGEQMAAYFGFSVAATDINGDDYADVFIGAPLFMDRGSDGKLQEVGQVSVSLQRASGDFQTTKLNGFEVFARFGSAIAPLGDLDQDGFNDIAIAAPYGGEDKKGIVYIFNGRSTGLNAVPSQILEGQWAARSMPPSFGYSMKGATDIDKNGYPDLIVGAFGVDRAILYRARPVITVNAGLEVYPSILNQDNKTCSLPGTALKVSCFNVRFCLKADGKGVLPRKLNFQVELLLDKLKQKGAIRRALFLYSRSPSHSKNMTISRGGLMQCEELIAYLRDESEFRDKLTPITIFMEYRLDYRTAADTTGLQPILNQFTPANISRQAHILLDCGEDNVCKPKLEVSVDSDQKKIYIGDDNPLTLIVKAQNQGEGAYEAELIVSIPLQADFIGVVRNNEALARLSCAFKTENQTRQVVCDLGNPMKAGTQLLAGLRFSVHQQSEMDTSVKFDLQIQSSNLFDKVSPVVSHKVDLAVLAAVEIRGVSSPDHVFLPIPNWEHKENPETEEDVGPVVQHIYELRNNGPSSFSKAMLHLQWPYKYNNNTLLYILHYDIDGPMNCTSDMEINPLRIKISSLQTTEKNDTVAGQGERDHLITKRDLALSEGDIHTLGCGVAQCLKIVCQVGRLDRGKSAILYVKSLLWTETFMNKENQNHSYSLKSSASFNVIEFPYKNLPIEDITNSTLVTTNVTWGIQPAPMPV
T2 sequence (P18564 22-707 limits assumed): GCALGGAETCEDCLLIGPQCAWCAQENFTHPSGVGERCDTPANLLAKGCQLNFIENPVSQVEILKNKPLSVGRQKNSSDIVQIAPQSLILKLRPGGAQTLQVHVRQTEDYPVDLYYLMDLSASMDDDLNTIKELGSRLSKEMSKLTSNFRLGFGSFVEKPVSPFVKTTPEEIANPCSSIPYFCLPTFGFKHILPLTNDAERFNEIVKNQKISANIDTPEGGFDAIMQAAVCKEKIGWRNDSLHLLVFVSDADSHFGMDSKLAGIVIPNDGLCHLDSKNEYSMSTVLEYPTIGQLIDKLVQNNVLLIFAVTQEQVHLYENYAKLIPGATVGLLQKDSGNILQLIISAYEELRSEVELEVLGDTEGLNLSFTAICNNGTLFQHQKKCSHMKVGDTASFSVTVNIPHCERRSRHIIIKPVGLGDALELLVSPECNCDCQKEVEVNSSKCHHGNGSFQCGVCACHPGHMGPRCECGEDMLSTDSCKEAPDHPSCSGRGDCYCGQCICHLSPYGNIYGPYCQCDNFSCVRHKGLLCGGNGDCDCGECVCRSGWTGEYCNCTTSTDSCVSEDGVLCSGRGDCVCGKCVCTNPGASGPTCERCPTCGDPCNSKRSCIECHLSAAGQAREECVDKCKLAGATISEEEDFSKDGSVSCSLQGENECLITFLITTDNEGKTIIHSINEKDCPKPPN
T1 sequence (P06756 31-992 limits assumed): as the sequence (P06756 31-992 limits assumed) above
T1 sequence (P26012 43-684 limits assumed): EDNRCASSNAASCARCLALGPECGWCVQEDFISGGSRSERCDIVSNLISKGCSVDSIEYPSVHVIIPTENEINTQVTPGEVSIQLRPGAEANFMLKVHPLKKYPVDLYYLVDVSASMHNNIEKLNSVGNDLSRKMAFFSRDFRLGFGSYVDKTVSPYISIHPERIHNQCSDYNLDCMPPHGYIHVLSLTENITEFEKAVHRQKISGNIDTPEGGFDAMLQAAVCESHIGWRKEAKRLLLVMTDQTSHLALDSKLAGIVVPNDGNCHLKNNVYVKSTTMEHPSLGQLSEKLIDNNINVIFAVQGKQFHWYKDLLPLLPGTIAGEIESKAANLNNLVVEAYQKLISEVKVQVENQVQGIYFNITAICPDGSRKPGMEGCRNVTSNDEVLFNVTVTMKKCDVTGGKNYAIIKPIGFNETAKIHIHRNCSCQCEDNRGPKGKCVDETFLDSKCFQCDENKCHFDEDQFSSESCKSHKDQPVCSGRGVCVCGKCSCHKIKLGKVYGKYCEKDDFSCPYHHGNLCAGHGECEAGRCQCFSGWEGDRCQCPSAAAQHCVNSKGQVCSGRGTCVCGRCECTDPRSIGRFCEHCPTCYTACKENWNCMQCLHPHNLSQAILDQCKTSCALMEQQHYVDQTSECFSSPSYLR

The term Ki denotes the dissociation constant of the complex between target and ligand, obtained from inhibition or displacement. For CFETLRGEERILSILRHQNLLKELQD-NH2 [2a], the Ki in test [1] and in test [2] was above 50000 nM each time. With CIRLDLELINFQSDLQHELLKTRLRG [5a-Scr], the Ki in test [3] was above 200 nM. In the case of `CC[C@H](C)[C@H](NC(=O)[C@H](CCCNC(=N)N)NC(=O)[C@H](CCC(=O)O)NC(=O)[C@H](CCC(=O)O)NC(=O)CNC(=O)[C@H](CCCNC(=N)N)NC(=O)[C@H](CC(C)C)NC(=O)[C@@H](NC(=O)[C@H](CCC(=O)O)NC(=O)[C@H](Cc1ccccc1)NC(=O)[C@@H](N)CSC1CC(=O)N(CCNC(=O)CN2CCN(CC(=O)O)CCN(CC(=O)O)CC2)C1=O)[C@@H](C)O)C(=O)N[C@@H](CC(C)C)C(=O)N[C@@H](CO)C(=O)N[C@H](C(=O)N[C@@H](CC(C)C)C(=O)N[C@@H](CCCNC(=N)N)C(=O)N[C@@H](Cc1c[nH]cn1)C(=O)N[C@@H](CCC(N)=O)C(=O)N[C@@H](CC(N)=O)C(=O)N[C@@H](CC(C)C)C(=O)N[C@@H](CC(C)C)C(=O)N[C@@H](CCCCN)C(=O)N[C@@H](CCC(=O)O)C(=O)N[C@@H](CC(C)C)C(=O)N[C@@H](CCC(N)=O)C(=O)N[C@@H](CC(=O)O)C(N)=O)[C@@H](C)CC` (some centres unmarked) [2a-NOTA] (H-C(X2)FETLRGEERILSILRHQNLLKELQD-NH2), the inhibition constant Ki in test [3] is above 1000 nM. Turning to “ac-FETLRGDLRILSILRX1QNLX2KELQD-CONH2 (sidechain bridge or staple) (Ac-FETLRGDLRILSILR[Pra]QNL[Lys(N3)]KELQD-NH2; triazole 16-20; not fully specified) [compound 5, chromogranin A-derived peptide with RGDL motif and triazole-stapled alpha-helix, previously developed by the authors]”, the inhibition constant Ki in test [2] was 0.6 ± 0.1 nM.
